The subject of experiment [1] is Ngn3+ endocrine progenitor cells. Briefly: Ngn3+ cells in embryonic pancreas explants (E12.5) cultured in vitro. In kind it is cell-based, mouse. To be noted: for number of Ngn3+ endocrine progenitor cells: E12.5 explants, recombinant protein 10 μg/mL, 72 hours vs buffer. As to the method: Isolation and culture of embryonic pancreas explants. The isolation and culture of embryonic pancreas explants was performed as described elsewhere, with minor modifications.
Processing of pancreatic tissue for immunofluorescence microscopy. The pancreatic tissues were isolated and fixed either overnight (adult pancreases), or for one hour (embryonic pancreas explants), in 2% PFA (pH 7.4), followed by a two-step saturation process: first in a 30% sucrose solution in PBS and then in optimal cutting temperature (OCT) compound. After complete saturation, the tissues were imbedded in OCT using Cryomold and then snap frozen in an ethanol/dry ice bath. The OCT blocks were serially cut through the entire organ to obtain representative sections every 600 μm (6 to 8 sections per adult pancreas), 50 μm (12 to 14 sections per E16.5 embryonic pancreas), 35 μm (10 to 12 sections per E14.5 embryonic pancreas), or 15 μm (10 to 12 sections per E12.5 embryonic pancreas cultured for 1 to 3 days). For the embryonic linage tracing experiments, three largest sections were taken for the analysis. For all other experiments involving immunofluorescence microscopy, all obtained sections were analyzed. […]
The sections from the pancreases of embryos at age E14.5 and E16.5, and newborn pups (OP), were stained with anti-Ngn3 antibody to determine the total number of endocrine progenitors cells for all sections per explant combined (FIG. 9G, FIG. 17A). Alternatively, the sections representing the pancreases of embryos at age E12.5 (which are considerably smaller) were stained with both anti-Ngn3 and anti-CK19 antibodies to determine the fraction of CK19-positive area that was occupied by Ngn3− positive staining (FIGS. 9D, 10A, 10C, 12D, 12G, 12J and FIGS. 15A, 20B). The following formula was used to adjust for any differences in the pancreas size: (Ngn3^+ cell number/μm^2 of CK19^+ cells)×10^5.
Image analysis. Embryonic images were processed with a plugin-Trainable Weka Segmentation v3.2.28 (Hamilton, New Zealand) for ImageJ v.1.52jv software. To classify and quantify the images in unbiased fashion, we defined the following four classes for the analysis: Ngn3^+ cells, the clusters of cytokeratin 19^+ cells, the negatively stained areas, and background (e.g., the area outside of tissue sample). Alternatively, the Visiopharm version 6.0 software (Visiopharm, Hoerholm, Denmark) with Author module was used to create applications to outline Ngn3^+ cells or double positive cells expressing YFP and insulin using preprocessing and postprocessing steps, when necessary. In addition, the Engine module of the Visiophram module was used to execute created applications and unbiasedly analyze the images. For the unbiased quantitative analysis of β-cells and islets in the whole pancreatic sections, Visiopharm Author module was trained to recognize insulin-positive β-cell clusters with diameter greater than 50 μm as well as negatively stained section area. In all studies involving microscopy the treatment assignments were blinded to investigators who performed data analysis.

The test system of the next experiment is Notch1 receptor. The experiment is described as follows: Examination of Notch1 receptor in embryonic pancreas (Western blot, flow cytometry, qPCR). In kind it is cell-based, mouse. How it is done: Staining for flow cytometry. BD LSRFortessa X-20, LSR-II and FACSCanto-II were used for FACS analysis. Positive populations of cells were gated and counted using FlowJo ver.10 software. For the islet cells isolated from adult mice, intracellular staining to detect glucagon and insulin was used to count single-positive as well as double-negative cells. In the cells isolated from embryonic pancreas explants, intracellular staining was performed to detect Ngn3, CK19, and active Notch, and extracellular staining was used to detect the extracellular Notch domain, EpCAM, CD31 and CD45.
Western blotting. Pancreatic tissues were processed from E16.5 embryos as single samples and directly used for lysis. Embryonic pancreas explants from E12.5 embryos were cultured in vitro with anti-serpinB13 mAb (or control Ab) for 24 or 48 hours, then, three explant cultures were combined and lysed. The samples were washed two times in ice-cold PBS and lysed with gentle pipetting for 10 minutes with additional tap-vortexing for 15 minutes in RIPA buffer containing Halt protease inhibitors (cat. no. 1862209, Thermo Fisher Scientific). Equal amounts of protein in each sample were run under reducing conditions on Bis-Tris BOLT gradient gel (4-12%) or NUPAGE Tris-acetate gradient gels (4-12%) (both from Thermo Fisher Scientific), and transferred onto […] nitrocellulose or activated PVDF membranes. The membranes were blocked with 5% skim milk and stained with primary and secondary antibodies, as indicated. The Western blots were developed with SuperSignal West Pico Chemiluminescent Substrate or West Femto Maximum Sensitivity Substrate (cat. nos. […] and […], respectively; both from Thermo Scientific), and scanned using the ChemiDoc™ MP Imaging System (Bio-Rad, Hercules, […], USA).
Quantitative real-time PCR. Total RNA from embryonic pancreases was extracted using the RNeasy UCP Micro kit (cat. no. 73934; Qiagen, Hilden, Germany) to measure expression of the Notch1 gene. One hundred to […] of the total RNA per group was reverse transcribed to cDNA using the iScript cDNA Synthesis Kit (cat. no. 1708891; Bio-Rad). Quantitative PCR assays were performed on an Applied Biosystems QuantStudio 3 real-time PCR system using cDNA and the Kapa Sybr Fast reagent (cat. no. 0795959100; Roche). Actin-R was used as a reference gene. The primer sequence for Notch1 was as follows: forward—5′[…]3′ and reverse—5′ […]3′.

For the molecule “recombinant CatL: recombinant mouse cathepsin L”, in experiment [1] (recombinant mouse cathepsin L 2.5 μg/mL for 4 hours vs buffer), the Ngn3 cells entry is reported as “induced additional”. Besides, the “cleavage of the extracellular domain of Notch1” value in the experiment on Notch1 receptor (recombinant CatL 2.5 μg/mL for last 4 hours of 48-hour incubation) is “cleaved”.
For the molecule `CC(C)C[C@H](NC(=O)[C@H]1O[C@@H]1C(=O)O)C(=O)NCCCCN=C(N)N` [Clone E64, reference compound], the “size of the Ngn3+ cell population” value in experiment [1] (E12.5 WT explants, E64 10 μM, 48 hours vs DMSO) is given as “significantly reduced”. Moreover, in the experiment on Notch1 receptor (E64 1 μM with antibody for 48 hours), the “mAb-induced Notch1 degradation fragments in presence of protease inhibitor” value is given as “almost completely prevented”.
“chicken ovalbumin: non-inhibitory structural homolog and founding member of the clade B serpin family, used as control [reference compound]”: in experiment [1], the “number of Ngn3+ endocrine progenitor cells” value (“number” for short) was “not”.

B1: recombinant serpinB13 protein: recombinant serpinB13 (mouse and human not distinguished at this place) (protein)
chain: MDSLGAVSTRLGFDLFKELKKTNDGNIFFSPVGILTAIGMVLLGTRGATASQLEEVFHSEKETKSSRIKAEEKEVIENTEAVHQQFQKFLTEISKLTNDYELNITNRLFGEKTYLFLQKYLDYVEKYYHASLEPVDFVNAADESRKKINSWVESKTNEKIKDLFPDGSISSSTKLVLVNMVYFKGQWDREFKKENTKEEKFWMNKSTSKSVQMMTQSHSFSFTFLEDLQAKILGIPYKNNDLSMFVLLPNDIDGLEKIIDKISPEKLVEWTSPGHMEERKVNLHLPRFEVEDGYDLEAVLAAMGMGDAFSEHKADYSGMSSGSGLYAQKFLHSSFVAVTEEGTEAAAATGIGFTVTSAPGHENVHCNHPFLFFIRHNESNSILFFGRFSSP
In the case of B1, the “number” value in experiment [1] was “downregulate”.

B2: human recombinant serpinB13: recombinant human serpinB13 expressed in baculovirus (protein)
chain: B1 chain
For B2, the “number” value in experiment [1] is listed as “significant drop”.

B3: mouse recombinant serpinB13: recombinant serpinB13 of mouse (protein)
chain: MDSLGTAATQFLFDLFKELNKTNDGNVFFSPVGISTAIGMIILGTRGATASELQKVLYTEQGTESSRIKSEEEEIEKREEIHHQLQMLLTEISKFSNDYDLIISNRLFGEKTYLFLQKYIDYVEKYYHASLEPVDFVNAADESRKKINSWVESQTNVKVKDLFPEGSLNSSTKLVLINTVYFKGLWDREFKKEHTKEEDFWLNKNLSKPVQMMALCSSFNFTFLEDLQAKIVGIPYKNNDISMFVLLPNDIDGLEKIMDKMSPEKLVEWTSPGHLEQRRVDLRLPRLQVEETYDLEPVLEAVGIHSAFSEHADYSGMSARSGLHAQNFLHRSFLVVTEEGVEATAGTGVGLKVSSAASCELVHCNHPFLFFIRHRESDSILFFGKFSSP
As to B3, the “number” value in experiment [1] is “significant drop”.

The record behind these values is patent US12441811B2, “Compositions and methods for treating serpin B13 disorders” (REGENTS OF THE UNIVERSITY OF MINNESOTA, priority 2019, dated 2025).
